Results as given in US20180037595A1, “BENZOXABOROLE COMPOUNDS AND USES THEREOF” (GLAXOSMITHKLINE INTELLECTUAL PROPERTY (NO.2) LIMITED, priority 2015, published 2018).
Values after ≈ are worked out from the molar mass of the structure shown. Read-outs that look alike come from different tables or passages of the source.

Columns and labels:
Human mito LeuRS = molecular target: T1, Human mito LeuRS (Homo sapiens, UniProt Q15031); assay: LeuRS aminoacylation assay, IC50 determination; type: biochemical
T1 sequence (Q15031 1-903): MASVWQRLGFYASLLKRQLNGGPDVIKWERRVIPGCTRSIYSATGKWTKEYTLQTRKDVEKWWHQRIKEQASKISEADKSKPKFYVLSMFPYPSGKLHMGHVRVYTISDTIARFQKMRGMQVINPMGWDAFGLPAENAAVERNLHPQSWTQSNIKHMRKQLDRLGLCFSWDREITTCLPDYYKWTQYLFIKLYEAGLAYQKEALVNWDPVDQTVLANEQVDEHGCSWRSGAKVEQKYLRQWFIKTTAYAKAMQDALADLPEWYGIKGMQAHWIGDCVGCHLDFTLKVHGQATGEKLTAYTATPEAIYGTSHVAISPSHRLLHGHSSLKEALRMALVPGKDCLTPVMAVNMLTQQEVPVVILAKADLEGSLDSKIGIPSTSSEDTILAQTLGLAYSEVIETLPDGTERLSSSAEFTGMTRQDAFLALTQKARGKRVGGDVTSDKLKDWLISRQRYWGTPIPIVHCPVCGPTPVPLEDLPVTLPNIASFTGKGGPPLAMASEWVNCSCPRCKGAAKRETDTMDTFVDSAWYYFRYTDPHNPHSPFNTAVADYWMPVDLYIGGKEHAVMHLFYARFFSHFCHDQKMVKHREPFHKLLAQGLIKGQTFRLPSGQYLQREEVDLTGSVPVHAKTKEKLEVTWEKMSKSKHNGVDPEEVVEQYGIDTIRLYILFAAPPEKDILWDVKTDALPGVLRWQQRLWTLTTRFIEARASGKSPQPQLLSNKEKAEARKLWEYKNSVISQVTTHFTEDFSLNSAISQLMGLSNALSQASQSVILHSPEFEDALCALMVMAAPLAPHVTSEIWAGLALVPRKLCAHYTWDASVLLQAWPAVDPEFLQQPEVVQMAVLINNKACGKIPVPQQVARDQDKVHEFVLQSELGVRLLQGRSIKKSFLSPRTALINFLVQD

Mtb LeuRS = Mtb LeuRS (Mycobacterium tuberculosis, UniProt P9WFV1); assay: LeuRS aminoacylation assay, IC50 determination; type: biochemical, M. tuberculosis
Protocol: For biochemical analyses an N-terminal six histidine-tagged LeuRS was over-expressed in Escherichia coli which were E. coli codon-optimised (GenScript, Piscataway N.J., USA), from human mitochondria and cytoplasm, and M. tuberculosis. N-terminal six histidine-tagged LeuRS proteins were over-expressed and purified according to Novagen (Madison, Wis., USA) using an E. coli BL21(DE3) T7 RNA polymerase over-expression strain.
Experiments were performed in 96-well microtiter plates, using 80 μL reaction mixtures containing 50 mM HEPES-KOH (pH 8.0), 30 mM MgCl2 30 mM KCl, 13 μM L-[^14C]leucine (306 mCi/mmol, Perkin-Elmer), 15 uM total E. coli tRNA (Roche, Switzerland), 0.02% (w/v) BSA, 1 mM DTT, 0.2 μM LeuRS and 4 mM ATP at 30° C. Reactions were started by the addition of 4 mM ATP. After 7 minutes, reactions were quenched and tRNA was precipitated by the addition of 50 μL of 10% (w/v) TCA and transferred to 96-well nitrocellulose membrane filter plates (Millipore Multiscreen HTS, MSHAN4B50). Each well was then washed three times with 100 μL of 5% TCA. Filter plates were then dried under a heat lamp and the precipitated L-[^14C]leucine tRNALeu were quantified by liquid scintillation counting using a Wallac MicroBeta Trilux model 1450 liquid scintillation counter (PerkinElmer, Waltham, Mass., USA). The only difference was with the human cytoplasmic LeuRS when we used tRNA isolated from Brewer's Yeast (Roche Diagnostics GmbH).
Reactions were initiated by the addition of 4 mM ATP. Reactions were stopped after 7 minutes then precipitated and counted to quantify radioactivity. IC50 values were determined using the Graphpad Prism software package (Graphpad Software Inc. (La Jolla, Calif., USA).

A. baumannii ATCC 17978 = assay: General antimicrobial activity assay (CLSI broth microdilution); type: cell-based
Protocol: (§1) Whole-cell antimicrobial activity was determined by broth microdilution using the Clinical and Laboratory Standards Institute (CLSI) recommended procedure, Document M7-A7, “Methods for Dilution Susceptibility Tests for Bacteria that Grow Aerobically”.

P. aeruginosa PA01 = assay: as above; type: cell-based
Protocol: as §1

E. coli K12 = assay: as above; type: cell-based
Protocol: as §1

E. coli K12 tolC::Tn10 = assay: as above; type: cell-based; details: Escherichia coli, read-out: MIC: E. coli K12 tolC::Tn10
Protocol: as §1

Human cyto LeuRS = Human cyto LeuRS (Homo sapiens, UniProt Q9P2J5); assay: LeuRS aminoacylation assay, IC50 determination; type: biochemical
HepG2 cells = assay: HepG2 cytotoxicity assay (resazurin); type: cell-based
[1] = tested on: M. tuberculosis standard strain Mtb H37Rv; assay: MIC determination against mycobacteria (resazurin microtiter assay); type: cell-based, Mycobacterium tuberculosis; details: for Selectivity Index (A/B): HepG2 cell 48 h Tox50 (A) / Mtb H37Rv MIC (B); for MIC: Mycobacterium tuberculosis, H37RV, read-out: Mtb H37Rv MIC (B)
[2] = tested on: M. tuberculosis clinical isolates; assay: MIC against clinical strains (BACTEC MGIT 960 System); type: cell-based; details: Mycobacterium tuberculosis, nearly all of the clinical isolate strains of Tables 2A-2D
[3] = Acinetobacter baumannii, ATCC17978, read-out: MIC: A. baumannii ATCC 17978
[4] = Pseudomonas aeruginosa, PA01, read-out: MIC: P. aeruginosa PA01
[5] = Escherichia coli, K12, read-out: MIC: E. coli K12
[6] = Homo sapiens, HepG2, 48 h, read-out: HepG2 cell 48 h Tox50 (A)
[7] = said to be sub-micromolar, read-out: IC50 values against M. tuberculosis
[8] = listed as EXAMPLE 4 G4-Cl, hydrochloride
[9] = Acinetobacter baumannii, ATCC17978; read-out: MIC: A. baumannii ATCC 17978
[10] = Pseudomonas aeruginosa, PA01; read-out: MIC: P. aeruginosa PA01
[11] = Escherichia coli, K12; read-out: MIC: E. coli K12
[12] = Homo sapiens, HepG2, 48 h; read-out: HepG2 cell 48 h Tox50 (A)

Mtb LeuRS, sequence (P9WFV1 whole entry): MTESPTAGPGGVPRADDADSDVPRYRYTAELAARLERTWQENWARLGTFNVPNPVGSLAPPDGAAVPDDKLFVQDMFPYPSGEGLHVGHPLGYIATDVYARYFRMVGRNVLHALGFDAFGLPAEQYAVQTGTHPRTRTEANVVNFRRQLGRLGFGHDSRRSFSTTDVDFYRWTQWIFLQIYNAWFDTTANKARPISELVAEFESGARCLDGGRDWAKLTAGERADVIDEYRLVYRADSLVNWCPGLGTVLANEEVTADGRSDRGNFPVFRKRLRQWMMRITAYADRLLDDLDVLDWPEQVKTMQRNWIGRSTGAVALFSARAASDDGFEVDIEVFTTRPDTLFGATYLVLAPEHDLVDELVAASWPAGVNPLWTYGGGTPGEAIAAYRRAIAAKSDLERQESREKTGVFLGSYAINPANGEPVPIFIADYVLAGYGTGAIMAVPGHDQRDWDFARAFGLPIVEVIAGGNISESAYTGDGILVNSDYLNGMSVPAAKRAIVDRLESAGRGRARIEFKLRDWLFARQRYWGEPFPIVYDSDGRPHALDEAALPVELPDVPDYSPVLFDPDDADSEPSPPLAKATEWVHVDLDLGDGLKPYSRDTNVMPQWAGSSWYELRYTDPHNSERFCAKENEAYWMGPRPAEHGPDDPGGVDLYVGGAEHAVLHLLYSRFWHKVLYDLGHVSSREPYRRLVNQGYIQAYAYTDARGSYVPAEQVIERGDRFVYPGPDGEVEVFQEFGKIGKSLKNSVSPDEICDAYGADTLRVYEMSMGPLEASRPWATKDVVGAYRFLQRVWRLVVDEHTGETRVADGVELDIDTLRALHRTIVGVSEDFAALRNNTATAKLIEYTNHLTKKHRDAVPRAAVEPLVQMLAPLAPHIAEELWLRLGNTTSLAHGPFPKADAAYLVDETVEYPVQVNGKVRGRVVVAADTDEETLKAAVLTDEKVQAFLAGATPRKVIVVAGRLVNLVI
Human cyto LeuRS, sequence (Q9P2J5 whole entry): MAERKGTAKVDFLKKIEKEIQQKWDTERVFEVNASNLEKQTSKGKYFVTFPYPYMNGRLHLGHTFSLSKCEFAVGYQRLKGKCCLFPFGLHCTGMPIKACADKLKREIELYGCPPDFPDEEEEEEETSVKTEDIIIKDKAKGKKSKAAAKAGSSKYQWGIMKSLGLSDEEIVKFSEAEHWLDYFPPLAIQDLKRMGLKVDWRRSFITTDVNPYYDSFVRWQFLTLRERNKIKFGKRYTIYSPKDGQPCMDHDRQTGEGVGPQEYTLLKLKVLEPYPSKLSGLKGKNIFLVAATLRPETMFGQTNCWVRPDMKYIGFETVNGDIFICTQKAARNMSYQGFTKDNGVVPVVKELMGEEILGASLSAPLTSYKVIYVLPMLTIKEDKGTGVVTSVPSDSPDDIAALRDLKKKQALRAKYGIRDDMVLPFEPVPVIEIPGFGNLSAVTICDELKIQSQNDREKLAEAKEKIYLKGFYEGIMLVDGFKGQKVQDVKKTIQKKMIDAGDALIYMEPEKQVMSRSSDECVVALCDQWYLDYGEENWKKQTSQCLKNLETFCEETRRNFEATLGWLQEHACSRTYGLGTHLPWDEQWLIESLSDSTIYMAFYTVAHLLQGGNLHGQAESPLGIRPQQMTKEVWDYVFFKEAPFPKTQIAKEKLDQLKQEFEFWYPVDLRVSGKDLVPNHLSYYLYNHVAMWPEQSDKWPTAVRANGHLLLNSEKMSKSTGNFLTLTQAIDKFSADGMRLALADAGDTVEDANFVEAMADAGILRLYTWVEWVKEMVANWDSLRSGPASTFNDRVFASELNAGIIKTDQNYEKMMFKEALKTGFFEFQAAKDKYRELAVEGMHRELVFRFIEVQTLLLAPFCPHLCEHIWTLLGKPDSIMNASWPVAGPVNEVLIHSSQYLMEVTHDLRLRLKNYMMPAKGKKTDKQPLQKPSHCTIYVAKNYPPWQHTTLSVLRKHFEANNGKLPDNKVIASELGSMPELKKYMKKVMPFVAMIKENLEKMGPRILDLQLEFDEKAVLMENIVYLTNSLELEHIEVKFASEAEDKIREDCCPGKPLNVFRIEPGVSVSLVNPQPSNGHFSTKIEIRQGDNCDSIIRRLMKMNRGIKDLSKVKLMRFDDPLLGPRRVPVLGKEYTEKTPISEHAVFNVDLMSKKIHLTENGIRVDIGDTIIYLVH

SMILES | IC50 (Human mito LeuRS) [µM] | IC50 (Mtb LeuRS; read-out: Mtb LeuRS IC50) [µM] | MIC (A. baumannii ATCC 17978; [3]) [µg/mL] | MIC (P. aeruginosa PA01; [4]) [µg/mL] | MIC (E. coli K12; [5]) [µg/mL] | MIC (E. coli K12 tolC::Tn10) [µg/mL] | IC50 (Human cyto LeuRS) [µM] | IC50 (HepG2 cells; [6]) [µM] | Selectivity Index (A/B) [1] | MIC [1] [µM] | IC50 (HepG2 cells; [12]) [µM] | other results
NCC1OB2OCCOc3cccc1c32 (racemic) [Example C2-H, reference compound] | > 300 | 0.506 | 2 (≈ 9.76 µM) | 2 (≈ 9.76 µM) | 2 (≈ 9.76 µM) | 4 (≈ 19.5 µM) | 272 | > 50 | >26 |  |  | 
Cl.NC[C@H]1OB2OCCOc3ccc(Br)c1c32 [Example 2, (S)-(3-bromo-7,8-dihydro-2H-1,6,9-trioxa-9a-borabenzo[cd]azulen-2-yl)methanamine hydrochloride] | > 300 | 0.115 | 64 | 64 | 64 | 64 | 118 | 292 | 4177 | < 0.1 |  | IC50 (Mtb LeuRS; [7]): 0.13 µM; MIC [2]: < 0.1 µM; Mtb H37Rv MIC (B) ([1]; listed as EXAMPLE 2 G2-Br, hydrochloride): 0.07 µM
Cl.NC[C@H]1OB2OCCOc3ccc(Cl)c1c32 [Example 4, (S)-(3-chloro-7,8-dihydro-2H-1,6,9-trioxa-9a-borabenzo[cd]azulen-2-yl)methanamine hydrochloride] | > 300 | 0.148 | 64 | 64 | 64 | 64 | 94.7 | > 1000 |  | < 0.1 |  | IC50 (Mtb LeuRS; [7]): 0.1 µM; Selectivity Index (A/B) [1, 8]: >12500; Selectivity Index (A/B) ([1]; listed as Example 4 G4-CI, hydrochloride): > 12,500; Mtb H37Rv MIC (B) [1, 8]: 0.08 µM
CC1(C)COc2ccc(Br)c3c2B(O[C@@H]3CN)O1.Cl [Example 10, (S)-(3-bromo-8,8-dimethyl-7,8-dihydro-2H-1,6,9-trioxa-9a-borabenzo[cd]azulen-2-yl)methanamine hydrochloride] |  | 1.13 | > 64 | > 64 | > 64 | > 64 | > 300 | 460 |  | 0.16 |  | 
CC1(C)COc2ccc(Cl)c3c2B(OC3CN)O1.Cl (stereo not shown) [Example 11, (3-chloro-8,8-dimethyl-7,8-dihydro-2H-1,6,9-trioxa-9a-borabenzo[cd]azulen-2-yl)methanamine hydrochloride] |  | 0.68 | > 64 | > 64 | > 64 | > 64 | > 300 | > 50 |  | 0.27 |  | Selectivity Index (A/B) ([1]; listed as EXAMPLE 11 G11-Cl, hydrochloride): >185; Selectivity Index (A/B) ([1]; listed as Example 11 G11-CI, hydrochloride): > 185
CC1(C)COc2ccc(Cl)c3c2B(O[C@@H]3CN)O1.Cl [Example 12, (S)-(3-chloro-8,8-dimethyl-7,8-dihydro-2H-1,6,9-trioxa-9a-borabenzo[cd]azulen-2-yl)methanamine hydrochloride] |  | 0.78 | > 64 | > 64 | > 64 | > 64 | > 300 | 322 |  | 0.08 |  | 
CCOc1ccc(Br)c2c1B(O)O[C@@H]2CN [Example C4-Br, reference compound] | > 300 |  |  |  |  | 64 (≈ 224 µM) | 31 |  |  |  | 32 | IC50 (Mtb LeuRS; Mtb LeuRS IC50): 0.07 µM; MIC (A. baumannii ATCC 17978; [9]): 64 µg/mL (≈ 224 µM); MIC (P. aeruginosa PA01; [10]): 64 µg/mL (≈ 224 µM); MIC (E. coli K12; [11]): 64 µg/mL (≈ 224 µM)
CCOc1cccc2c1B(O)O[C@@H]2CN [Example C5-H, reference compound] | > 300 | 0.111 |  |  |  |  | 25.6 |  | 5 |  | 1.8 | 
CCOc1ccc(Cl)c2c1B(O)O[C@@H]2CN [Example C6-Cl, reference compound] | > 300 |  |  |  |  | 64 (≈ 265 µM) |  |  |  |  | 36.3 | IC50 (Mtb LeuRS; Mtb LeuRS IC50): 0.05 µM; MIC (A. baumannii ATCC 17978; [9]): 64 µg/mL (≈ 265 µM); MIC (P. aeruginosa PA01; [10]): 64 µg/mL (≈ 265 µM); MIC (E. coli K12; [11]): 64 µg/mL (≈ 265 µM)
NC[C@H]1OB2OCCOc3ccc(Cl)c1c32 [Example G4-CI] |  |  |  |  |  |  |  |  |  |  |  | MIC [2]: < 0.1 µM
